These are literature values, as cited in patent US10251814B2, “Cefuroxime safety delivery system” (CIS PHARMA AG, priority 2011, dated 2019).

Read-outs that look alike come from different tables or passages of the source.

The conditions of series [1]: 1 mg in 0.1 ml of aqueous solution.
The next series concerns endophthalmitis. The note with it: 16,603 patients; cefuroxime 1 mg in 0.1 ml normal saline intracameral at end of surgery; levofloxacin drops prior and subsequent to surgery.
Series [2] relates to human corneal endothelial cells. The note with it: 24-hour exposure.
For series [3] the following is noted: in 48 hours, at room temperature.

Turning to `CO/N=C(\C(=O)N[C@@H]1C(=O)N2C(C(=O)O)=C(COC(N)=O)CS[C@H]12)c1ccco1` [cefuroxime], the mean intracameral concentration is, setting by setting: (after one hour, intracameral administration of 1 mg in 0.1 ml) 0.756 mg/mL; (shortly after intracameral administration of 1 mg in 0.1 ml) 2.742 mg/mL. In addition, in series [1], the “safety of intracameral administration” value is “has been established”. In addition, in the series with endophthalmitis, the “reduction of the risk for endophthalmitis” value is “nearly five fold”. The “concentration resulting in a significant reduction in cell viability” value in series [2] is reported as “exceeding 2.75 mg/ml”. Further, in series [3], the “hydrolysis rate in aqueous solution” value is recorded as “about 10%”.
